In brackets after ≈: the same amount, converted by molar mass.
What was measured:
HIV-RT = conditions: preliminary mechanism of action studies; cited from earlier work
[1] = Water solubility analysis by HPLC; assay type: physicochemical

solubility at 1 h [1] [µg/mL] | SMILES | Inhibition of HIV-RT DNA-dependent DNA polymerase activity (HIV-RT)
– | Cc1cc(=O)oc2c3c(ccc12)OC(C)(C)[C@H](OC(=O)[C@@]12CC[C@@](C)(C(=O)O1)C2(C)C)[C@@H]3OC(=O)[C@@]12CC[C@@](C)(C(=O)O1)C2(C)C [Compound 4-MDCK, 4-methyl DCK] | inhibited
5.2 (≈ 7.99 µM) | Cc1cc(=O)c2c(C)cc3c(c2o1)[C@@H](OC(=O)[C@@]12CC[C@@](C)(C(=O)O1)C2(C)C)[C@@H](OC(=O)[C@@]12CC[C@@](C)(C(=O)O1)C2(C)C)C(C)(C)O3 [Compound 5, 3′R,4′R-Di-O-(−)-camphanoyl-2,5,2′,2′-tetramethyldihydropyrano[2,3-f]chromone] | –
